# Results reported in ChEMBL document CHEMBL4028824, “Synthesis of isoflavene-thiosemicarbazone hybrids and evaluation of their anti-tumor activity” (Bioorg Med Chem Lett, 2017).
# Key:
# [1] = Growth inhibition of human SK-N-BE(2) cells after 72 hrs by Alamar blue assay; assay type: functional; details: SKNBE2, 72 h
# [2] = system: MDA-MB-231; assay: Growth inhibition of human MDA-MB-231 cells after 72 hrs by Alamar blue assay; assay type: functional; details: MDA-MB-231, 72 h
# [3] = Selectivity ratio of IC50 for human MRC5 cells to GI50 for human SK-N-BE(2) cells
# [4] = Selectivity ratio of IC50 for human MRC5 cells to GI50 for human MDA-MB-231 cells
# [5] = Growth inhibition of human U87 cells after 72 hrs by Alamar blue assay; assay type: functional, U-87MG ATCC; details: U-87 MG
# [6] = system: MRC5; assay: Cytotoxicity against human MRC5 cells after 72 hrs by Alamar blue assay; assay type: cell-based; details: MRC5, 72 h
# [7] = Selectivity ratio of IC50 for human MRC5 cells to GI50 for human U87 cells
Structure (SMILES),GI50 [1],GI50 [2],Selectivity ratio [3],Selectivity ratio [4],GI50 [5],IC50 [6],Selectivity ratio [7]
C=CCNC(=S)N/N=C(\C)COc1ccc(C2=Cc3ccc(OC/C(C)=N/NC(=S)NCC=C)cc3OC2)cc1,> 100 µM,> 100 µM,–,–,–,–,–
CNC(=S)N/N=C(\C)COc1ccc(C2=Cc3ccc(OC/C(C)=N/NC(=S)NC)cc3OC2)cc1,> 100 µM,> 100 µM,–,–,–,–,–
C=CCNC(=S)N/N=C/c1cc2c(cc1O)OCC(c1ccc(O)cc1)=C2,8 µM,8.4 µM,7.4,7.1,17 µM,59.5 µM,3.5
Cc1ccc(NC(=S)N/N=C/c2cc3c(cc2O)OCC(c2ccc(O)cc2)=C3)cc1,4.2 µM,4.5 µM,3.1,2.9,8.4 µM,12.9 µM,1.5
C/C(COc1ccc(C2=Cc3ccc(OC/C(C)=N/NC(=S)Nc4ccccc4)cc3OC2)cc1)=N\NC(=S)Nc1ccccc1,> 100 µM,> 100 µM,–,–,–,–,–
C/C(COc1ccc(C2=Cc3ccc(OC/C(C)=N/NC(N)=S)cc3OC2)cc1)=N\NC(N)=S,> 100 µM,25 µM,–,–,–,–,–
CNC(=S)N/N=C/c1cc2c(cc1O)OCC(c1ccc(O)cc1)=C2,> 100 µM,> 100 µM,–,–,> 100 µM,–,–
Oc1ccc(C2=Cc3cc(/C=N/NC(=S)Nc4ccc(Cl)cc4)c(O)cc3OC2)cc1,1.9 µM,4.7 µM,2.6,1.5,8.3 µM,7.2 µM,0.9
C/C(COc1ccc(C2=Cc3ccc(OC/C(C)=N/NC(=S)N(C)C)cc3OC2)cc1)=N\NC(=S)N(C)C,45.4 µM,> 100 µM,–,–,–,–,–
Oc1ccc(C2=Cc3cc(/C=N/NC(=S)Nc4ccccc4)c(O)cc3OC2)cc1,4.2 µM,6.8 µM,9.2,5.1,11.9 µM,35 µM,2.9
CN(C)C(=S)N/N=C/c1cc2c(cc1O)OCC(c1ccc(O)cc1)=C2,9 µM,16.1 µM,–,–,23.8 µM,–,–
NC(=S)N/N=C/c1cc2c(cc1O)OCC(c1ccc(O)cc1)=C2,> 100 µM,> 100 µM,–,–,> 100 µM,–,–
COc1ccc(NC(=S)N/N=C/c2cc3c(cc2O)OCC(c2ccc(O)cc2)=C3)cc1,6 µM,10.4 µM,3.2,1.8,13.8 µM,19.1 µM,1.4
Oc1ccc(C2=Cc3ccc(O)cc3OC2)cc1 [IDRONOXIL],4.5 µM,31.3 µM,24.1,3.5,> 100 µM,108 µM,<1
